# Values quoted from earlier work in patent US20220001014A1 (priority 2020, published 2022).
# Structures can show the parent of a compound that is named as a salt.
# Tests used:
# Neprilysin = Neprilysin (Homo sapiens, UniProt P08473)
# ACE = ACE (Homo sapiens, UniProt P12821)
# Bradykinin B2 = target: T1, Bradykinin B2 (Homo sapiens, UniProt P30411); conditions: 18 μg/kg/h iv for 6 h; sodium-deplete normotensive and hypertensive subjects
# T1 construct: host or cells: subjects in vivo (endogenous receptor)
# T1 sequence (P30411 1-391): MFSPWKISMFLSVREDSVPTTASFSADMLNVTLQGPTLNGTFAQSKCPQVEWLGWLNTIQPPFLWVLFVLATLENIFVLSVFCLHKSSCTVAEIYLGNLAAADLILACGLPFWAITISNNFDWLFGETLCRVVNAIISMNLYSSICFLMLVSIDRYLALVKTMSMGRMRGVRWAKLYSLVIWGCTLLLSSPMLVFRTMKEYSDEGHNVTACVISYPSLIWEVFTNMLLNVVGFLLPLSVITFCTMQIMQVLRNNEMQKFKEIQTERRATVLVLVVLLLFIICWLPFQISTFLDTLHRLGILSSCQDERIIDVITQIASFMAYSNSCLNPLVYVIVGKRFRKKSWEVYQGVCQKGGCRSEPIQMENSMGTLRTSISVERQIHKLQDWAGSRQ
# [1] = in vivo
# SARS-CoV [2] = conditions: mice; dosed at concentrations similar to the clinically achievable concentration in humans; reduced from 100%
# SARS-CoV [3] = conditions: lung epithelial cell lines
# SARS-COV2 = conditions: recent in vitro studies
# [4] = injection; LPS-induced acute lung injury
# Sequence of ACE (P12821 30-1306, species assumed): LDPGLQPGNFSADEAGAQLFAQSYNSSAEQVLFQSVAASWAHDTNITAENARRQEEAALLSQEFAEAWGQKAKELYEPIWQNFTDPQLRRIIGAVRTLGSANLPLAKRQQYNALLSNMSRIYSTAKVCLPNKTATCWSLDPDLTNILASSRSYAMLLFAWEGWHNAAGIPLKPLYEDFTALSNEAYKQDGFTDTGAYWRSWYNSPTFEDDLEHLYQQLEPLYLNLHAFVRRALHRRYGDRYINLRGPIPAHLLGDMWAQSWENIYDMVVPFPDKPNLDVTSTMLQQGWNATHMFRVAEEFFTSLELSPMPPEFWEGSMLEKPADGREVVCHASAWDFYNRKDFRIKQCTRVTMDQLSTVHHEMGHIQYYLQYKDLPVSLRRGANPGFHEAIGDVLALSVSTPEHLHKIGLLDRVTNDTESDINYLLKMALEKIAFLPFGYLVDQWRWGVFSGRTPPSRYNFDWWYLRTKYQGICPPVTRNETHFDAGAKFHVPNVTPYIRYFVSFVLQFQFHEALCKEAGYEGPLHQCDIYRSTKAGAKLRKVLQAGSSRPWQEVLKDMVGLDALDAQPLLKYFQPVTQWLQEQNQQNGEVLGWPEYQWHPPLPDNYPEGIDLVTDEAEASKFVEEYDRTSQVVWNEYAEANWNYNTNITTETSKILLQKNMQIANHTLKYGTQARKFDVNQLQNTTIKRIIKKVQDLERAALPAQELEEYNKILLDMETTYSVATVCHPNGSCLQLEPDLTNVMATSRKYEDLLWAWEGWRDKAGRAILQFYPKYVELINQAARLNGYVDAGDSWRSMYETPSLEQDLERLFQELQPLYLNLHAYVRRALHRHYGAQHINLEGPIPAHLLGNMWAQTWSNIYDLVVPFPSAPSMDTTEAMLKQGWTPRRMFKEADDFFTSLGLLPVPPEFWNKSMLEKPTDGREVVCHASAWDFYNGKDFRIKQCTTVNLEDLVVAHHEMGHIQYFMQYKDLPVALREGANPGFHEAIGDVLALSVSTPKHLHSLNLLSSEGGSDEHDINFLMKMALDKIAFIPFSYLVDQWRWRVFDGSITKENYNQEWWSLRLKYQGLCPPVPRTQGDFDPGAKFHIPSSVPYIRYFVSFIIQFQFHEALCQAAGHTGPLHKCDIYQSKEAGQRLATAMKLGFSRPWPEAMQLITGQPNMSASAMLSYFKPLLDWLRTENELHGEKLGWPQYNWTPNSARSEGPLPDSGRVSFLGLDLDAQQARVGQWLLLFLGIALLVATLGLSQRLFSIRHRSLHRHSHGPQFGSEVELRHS
# Sequence of Neprilysin (P08473 whole entry, species assumed): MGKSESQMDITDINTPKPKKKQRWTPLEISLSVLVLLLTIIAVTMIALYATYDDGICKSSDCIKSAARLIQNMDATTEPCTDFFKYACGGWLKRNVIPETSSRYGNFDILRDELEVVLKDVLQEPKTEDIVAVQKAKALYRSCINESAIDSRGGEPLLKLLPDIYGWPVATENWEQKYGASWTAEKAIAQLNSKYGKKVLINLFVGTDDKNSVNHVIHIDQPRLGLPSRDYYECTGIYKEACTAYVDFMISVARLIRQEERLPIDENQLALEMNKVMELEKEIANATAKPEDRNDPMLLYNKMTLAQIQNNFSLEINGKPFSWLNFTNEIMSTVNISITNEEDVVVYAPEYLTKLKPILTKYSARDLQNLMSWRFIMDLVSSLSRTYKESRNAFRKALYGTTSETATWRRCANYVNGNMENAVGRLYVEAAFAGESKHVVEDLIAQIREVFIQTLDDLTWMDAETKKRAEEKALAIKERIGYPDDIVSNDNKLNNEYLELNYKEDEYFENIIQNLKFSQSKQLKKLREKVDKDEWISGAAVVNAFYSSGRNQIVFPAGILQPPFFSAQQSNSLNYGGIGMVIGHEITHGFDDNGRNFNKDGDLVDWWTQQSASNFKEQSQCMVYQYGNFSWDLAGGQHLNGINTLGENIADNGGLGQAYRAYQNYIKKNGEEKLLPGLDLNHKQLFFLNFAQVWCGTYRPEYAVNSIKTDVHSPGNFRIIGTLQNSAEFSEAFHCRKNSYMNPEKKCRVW
compound,measurement,setting,value
CC(=O)SC[C@@H](Cc1ccccc1)C(=O)NCC(=O)OCc1ccccc1 [Ecadotril],Neprilysin inhibition,Neprilysin,99%
same,ACE inhibition,ACE,23%
NC(N)=NCCC[C@@H](N)C(=O)N[C@@H](CCCN=C(N)N)C(=O)N1CCC[C@H]1C(=O)N1C[C@H](O)C[C@H]1C(=O)NCC(=O)N[C@@H](Cc1cccs1)C(=O)N[C@@H](CO)C(=O)N1Cc2ccccc2C[C@@H]1C(=O)N1[C@H](C(=O)N[C@@H](CCCN=C(N)N)C(=O)O)C[C@@H]2CCCC[C@@H]21 [Icatibant],attenuation of hypotensive effects of acute or chronic valsartan,Bradykinin B2,did not attenuate
NCCCC[C@H](N[C@@H](CCc1ccccc1)C(=O)O)C(=O)N1CCC[C@H]1C(=O)O [Lisinopril],ACE inhibition,ACE,83%
O=C(N[C@H]1CCS[C@H]2CCC[C@@H](C(=O)O)N2C1=O)[C@@H](S)Cc1ccccc1 [Omapatrilat],Neprilysin inhibition,Neprilysin,53%
same,ACE inhibition,ACE,> 90%
Cn1c(=O)cc(N2CCC[C@@H](N)C2)n(Cc2ccccc2C#N)c1=O [alogliptin],joint pains,[1],can cause severe joint pains
"CN(C)C(=O)COC(=O)Cc1ccc(OC(=O)c2ccc(NC(=N)N)cc2)cc1 [camostat mesylate, Camostat mesylate]",mortality following SARS-CoV infection,SARS-CoV [2],30-35%
same,entry of viruses into host cells,SARS-CoV [3],left some residual entry of viruses
same,inhibition of SARS-COV2 viral entry,SARS-COV2,did not fully inhibit
CC#CCn1c(N2CCC[C@@H](N)C2)nc2c1c(=O)n(Cc1nc(C)c3ccccc3n1)c(=O)n2C [linagliptin],joint pains,[1],can cause severe joint pains
N[C@@H](CC(=O)N1CCn2c(nnc2C(F)(F)F)C1)Cc1cc(F)c(F)cc1F [sitagliptin],joint pains,[1],can cause severe joint pains
"rhACE2: rhACE2, injected in LPS-induced acute lung injury",lung injury and inflammation,[4],improved lung injury and inflammation
